Data set [1] has as its target T1, Cytochrome P450 3A4 (Homo sapiens, UniProt P08684). The data set can be described thus: Time-dependent inhibition of CYP3A4 (unknown origin). In kind it is ADME.
Data set [2] in a line: Solubility of the compound by LYSA. In kind it is physicochemical.
Data set [3] can be described thus: Intrinsic clearance in rat hepatocytes assessed per million cells at 1 uM preincubated for 1 hr followed by NADPH addition and measured by LC/MS/MS analysis. The data set is classed as ADME, cell-based, Hepatocyte. Particulars: read-out: CLH; call rule not given here.
A short description of data set [4]: Intrinsic clearance in rat liver microsomes at 1 uM preincubated for 1 hr followed by NADPH addition and measured by LC/MS/MS analysis. The data set is classed as ADME, Microsome. The following applies: read-out: CLH.
Data set [5] addresses Cytochrome P450 2C9 (Homo sapiens, UniProt P11712). The data set can be described thus: Inhibition of CYP2C9 (unknown origin). In kind it is ADME.
Data set [6] in a line: Intrinsic clearance in human hepatocytes assessed per million cells at 1 uM preincubated for 1 hr followed by NADPH addition and measured by LC/MS/MS analysis. The data set is classed as ADME, cell-based, Hepatocyte. The following applies: read-out: CLH.
Data set [7] concerns the target Cytochrome P450 2D6 (Homo sapiens, UniProt P10635). The data set can be described thus: Inhibition of CYP2D6 (unknown origin). In kind it is ADME.
Data set [8] deals with T1, Cytochrome P450 3A4. The data set can be described thus: Inhibition of CYP3A4 (unknown origin). The data set is classed as ADME.
The nature of data set [9]: Intrinsic clearance in human liver microsomes at 1 uM preincubated for 1 hr followed by NADPH addition and measured by LC/MS/MS analysis. In kind it is ADME, Microsome. The following applies: read-out: CLH.
For data set [10], the target named is T2, Tyrosine-protein kinase BTK (Homo sapiens, UniProt Q06187). The data set can be described thus: Inhibition of Kinase Tracer 178 binding to biotinylated-BTK (unknown origin) measured after 18 to 24 hrs by Europium-labeled Streptavidin conjugate based TR-FRET assay.
T2 sequence (Q06187 whole entry): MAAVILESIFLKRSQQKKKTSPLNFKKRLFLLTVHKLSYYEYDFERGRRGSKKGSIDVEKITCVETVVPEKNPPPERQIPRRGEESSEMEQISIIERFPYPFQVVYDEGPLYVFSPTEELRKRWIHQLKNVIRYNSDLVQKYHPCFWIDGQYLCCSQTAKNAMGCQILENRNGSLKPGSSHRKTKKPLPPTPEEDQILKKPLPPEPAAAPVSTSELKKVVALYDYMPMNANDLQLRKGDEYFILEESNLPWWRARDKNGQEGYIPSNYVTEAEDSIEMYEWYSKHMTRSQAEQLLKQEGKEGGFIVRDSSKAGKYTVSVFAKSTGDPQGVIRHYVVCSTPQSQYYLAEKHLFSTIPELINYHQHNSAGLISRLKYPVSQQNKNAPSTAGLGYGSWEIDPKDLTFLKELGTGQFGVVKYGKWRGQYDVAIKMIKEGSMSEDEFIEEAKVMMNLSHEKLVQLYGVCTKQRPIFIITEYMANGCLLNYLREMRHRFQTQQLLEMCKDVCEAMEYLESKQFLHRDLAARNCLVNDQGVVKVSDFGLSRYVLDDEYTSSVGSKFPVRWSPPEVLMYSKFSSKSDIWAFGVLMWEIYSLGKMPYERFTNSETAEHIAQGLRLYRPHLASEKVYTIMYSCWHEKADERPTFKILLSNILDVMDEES
For data set [11], the target named is T2, Tyrosine-protein kinase BTK. The data set can be described thus: Inhibition of BTK in goat F(ab')2 anti-human IgM-stimulated human whole blood assessed as suppression of CD69 expression on B cells pretreated for 30 mins followed by goat F(ab')2 anti-human IgM-stimulation and measured after 20 hrs by flow cytometry. In kind it is tissue-based.

In brackets after ≈: the same amount, converted by molar mass.

T1 sequence (P08684 whole entry): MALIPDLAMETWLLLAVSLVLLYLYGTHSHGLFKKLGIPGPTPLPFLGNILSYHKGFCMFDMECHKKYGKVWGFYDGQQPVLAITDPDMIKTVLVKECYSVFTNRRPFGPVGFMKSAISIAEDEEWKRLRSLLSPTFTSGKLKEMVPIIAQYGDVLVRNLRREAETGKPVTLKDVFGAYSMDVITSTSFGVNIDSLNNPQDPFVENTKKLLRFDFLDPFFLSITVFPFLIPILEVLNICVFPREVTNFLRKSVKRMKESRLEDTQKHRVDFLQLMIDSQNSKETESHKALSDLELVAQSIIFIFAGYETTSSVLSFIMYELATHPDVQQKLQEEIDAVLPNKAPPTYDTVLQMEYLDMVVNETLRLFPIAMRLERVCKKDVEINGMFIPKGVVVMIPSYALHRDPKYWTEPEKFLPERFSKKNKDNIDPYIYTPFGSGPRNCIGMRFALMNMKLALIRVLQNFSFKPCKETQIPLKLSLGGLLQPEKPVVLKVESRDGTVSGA
Sequence of Cytochrome P450 2D6 (P10635 whole entry): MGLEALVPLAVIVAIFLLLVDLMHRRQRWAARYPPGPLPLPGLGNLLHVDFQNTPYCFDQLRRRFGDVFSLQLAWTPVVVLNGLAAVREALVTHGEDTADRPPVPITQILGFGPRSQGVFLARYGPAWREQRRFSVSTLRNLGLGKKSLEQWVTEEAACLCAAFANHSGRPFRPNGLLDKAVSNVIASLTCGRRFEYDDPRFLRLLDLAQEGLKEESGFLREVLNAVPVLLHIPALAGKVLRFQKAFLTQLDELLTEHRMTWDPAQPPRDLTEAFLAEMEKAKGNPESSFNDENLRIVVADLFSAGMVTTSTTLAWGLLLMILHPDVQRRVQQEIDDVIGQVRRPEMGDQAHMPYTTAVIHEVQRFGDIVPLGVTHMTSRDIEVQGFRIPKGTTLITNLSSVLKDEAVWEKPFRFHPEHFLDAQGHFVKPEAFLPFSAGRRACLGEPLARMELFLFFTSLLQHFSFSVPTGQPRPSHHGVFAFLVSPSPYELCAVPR
Sequence of Cytochrome P450 2C9 (P11712 whole entry): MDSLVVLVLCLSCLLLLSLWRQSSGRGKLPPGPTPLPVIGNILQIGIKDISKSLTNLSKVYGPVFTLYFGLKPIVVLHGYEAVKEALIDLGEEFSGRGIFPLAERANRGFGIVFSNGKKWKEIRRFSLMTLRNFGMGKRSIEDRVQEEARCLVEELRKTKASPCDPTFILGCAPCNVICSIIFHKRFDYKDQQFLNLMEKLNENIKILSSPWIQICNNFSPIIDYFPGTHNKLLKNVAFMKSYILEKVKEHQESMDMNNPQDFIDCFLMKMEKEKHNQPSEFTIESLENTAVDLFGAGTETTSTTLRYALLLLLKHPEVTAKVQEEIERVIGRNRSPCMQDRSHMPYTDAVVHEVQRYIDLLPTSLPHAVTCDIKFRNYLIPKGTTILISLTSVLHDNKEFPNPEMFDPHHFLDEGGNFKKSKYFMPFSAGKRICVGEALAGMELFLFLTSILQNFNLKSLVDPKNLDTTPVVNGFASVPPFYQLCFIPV

For `Cn1c2c(cc(Nc3ccc(C(=O)N4CCOCC4)cn3)c1=O)-c1cccc(-n3ncc4cc(C(C)(C)C)cc(F)c4c3=O)c1C[C@H](O)C2`, in data set [1], the TDI entry is on record as “Not Active”.
Molecule `Cn1c2c(cc(Nc3ccc(C(=O)N4CCOCC4)cn3)c1=O)-c1cccc(-n3ncc4cc(C(C)(C)C)cc(F)c4c3=O)c1CC(O)C2` (racemic) returned a solubility in data set [2] of 1 µg/mL (≈ 1.5 µM). The hepatocyte CLint at 1 µM in data set [3] was found to be 3.3 µL/min/1e6 cells; in data set [6], 0.3 µL/min/1e6 cells. The results for the microsomal CLint at 1 µM in [4] and in data set [9] were 19 µL/min/mg and 29 µL/min/mg, respectively. Further, the TDI in [1] is listed as 0%. For the same molecule, the INH in data set [5], in data set [7] and in data set [8] was > 7 µM throughout.
In data set [2], `Cn1nc(-c2cccc(-n3ncc4cc(C(C)(C)C)cc(F)c4c3=O)c2CO)cc(Nc2ccc(C(=O)N3CCOCC3)cn2)c1=O` returned a solubility of 1.1 µg/mL (≈ 1.72 µM). For the same molecule, the hepatocyte CLint at 1 µM in data set [3] is 2 µL/min/1e6 cells; in [6] it was 0.3 µL/min/1e6 cells. For the same molecule, the microsomal CLint at 1 µM was determined as 29 µL/min/mg in [4] and 20 µL/min/mg in data set [9]. Besides, the TDI in data set [1] amounted to 0%. In addition, the INH in [5], in [7] and in [8] was > 10 µM in each case. In addition, the IC50 in [10] is < 1 nM; in data set [11], 23 nM.

The values are drawn from ChEMBL document CHEMBL4316621, “A potent seven-membered cyclic BTK (Bruton's tyrosine Kinase) chiral inhibitor conceived by structure-based drug design to lock its bioactive conformation” (Bioorg Med Chem Lett, 2019).
